Tests used:
[1] = tested on: LPA 18:2 in rat plasma; assay: Rat whole blood (plasma) LPA assay; type: biochemical; settings: 2 h at 37 C, LPA 18:2 by LC-MS/MS
Method: Whole blood is collected from rats or mouse by exsanguinations on sodium heparin tube, then after centrifugation at 3000 rpm for 15 min at 4° C., plasma is stored at −80° C. Compounds are diluted in DMSO in concentration dependent manner then 0.5 μL are dispensed into 96-well plate placed in ice. Plasma is defrosted on ice then 49.5 μL of plasma are added into the well containing 0.5 μL of compound (1% DMSO final). Plates are covered with a lid in polypropylene and incubated at +37° C., 5% CO2, for 2 h under gentle shaking (except controls which are stored at −20° C.).
At the end of the incubation, controls are defrosted in ice and transferred in the incubated plates for LC-MS/MS analysis with a non GLP-validated method. For the analysis, plasma proteins from a 10 μL incubated plates are precipitated with an excess of methanol containing the internal standard, LPA 17:0. After centrifugation, the corresponding supernatant is injected on a C18 column. Analytes are eluted out of the column under isocratic conditions. An API5500 QTRAP mass spectrometer (ABSciex™) is used for the detection of LPA 18:2. No calibration curve is prepared for LPA 18:2, however relative quantities are evaluated based on the peak area.

[2] = biological target: T1, hENPP2 (UniProtKB/SwissProt Q13822) (Homo sapiens (Human), UniProt Q13822); assay: hENPP2 biochemical assay, LPC as substrate; settings: LPC (palmitoyl 16:0) as substrate
How it was run: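 Human ENPP2 in 50 mM Tris-HCl pH 8.5, 500 mM NaCl, 5 mM KCl, 10 mM CaCl2, 0.1% fatty-acid-free BSA, reacted 30 min at 37 °C with LPC 16:0 (150 µM solution added 1:1). Released choline measured via choline oxidase/peroxidase/TOOS/4-aminoantipyrine quinoneimine dye at 555 nm; IC50 reported.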

[3] = biological target: T1, hENPP2; assay: fluorescent hENPP2 biochemical assay, FS-3 as substrate; settings: read-out: FS3-IC50
How it was run: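 hENPP2 in 50 mM Tris-HCl pH 8.0, 250 mM NaCl, 5 mM KCl, 1 mM MgCl2, 1 mM CaCl2, 0.1% fatty-acid-free BSA, preincubated with compound 30 min at room temperature. The 0.75 μM FS-3 solution was added and the mixture incubated 30 min at 30° C. Fluorescence (ex 485/em 520 nm) gives IC50.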

Row | IC50 [1] [nM] | IC50 [2] [nM] | IC50 [3] [nM] | SMILES
1 | > 1000 | 100 to 500 |  | CCc1nc2ccc(N3CCN(CC(=O)N4CC[C@@H](O)C4)CC3)cn2c1N(C)c1nc(-c2ccc(F)cc2)cs1 [Compound 26, (R)-2-(4-(2-ethyl-3-((4-(4-fluorophenyl)thiazol-2-yl)(methyl)amino)imidazo[1,2-a]pyridin-6-yl)piperazin-1-yl)-1-(3-hydroxypyrrolidin-1-yl)ethanone]
2 | 0.01 to 100 | 0.01 to 100 |  | CCc1nc2ccc(C3CCN(CC(=O)N4CC(CO)C4)CC3)cn2c1N(C)c1nc(-c2ccc(F)cc2)c(C#N)s1 [Compound 144, 2-((2-ethyl-6-(1-(2-(3-(hydroxymethyl)azetidin-1-yl)-2-oxoethyl)piperidin-4-yl)imidazo[1,2-a]pyridin-3-yl)(methyl)amino)-4-(4-fluorophenyl)thiazole-5-carbonitrile]
3 | > 1000 | 500 to 1000 | 0.01 to 100 | CCc1nc2ccc(C3=CCN(S(=O)(=O)CCCO)CC3)cn2c1N(C)c1nc(-c2ccc(F)cc2)cs1 [Compound 75, 3-(4-(2-ethyl-3-((4-(4-fluorophenyl)thiazol-2-yl)(methyl)amino)imidazo[1,2-a]pyridin-6-yl)-5,6-dihydropyridin-1(2H)-ylsulfonyl)propan-1-ol]
4 | > 1000 | > 1000 |  | CCc1nc2ccc(N3CCN(C(=O)C4CCN(C(C)=O)C4)CC3)cn2c1N(C)c1nc(-c2ccc(F)cc2)cs1 (stereo not shown) [Compound 48, 1-{3-[4-(2-Ethyl-3-{[4-(4-fluoro-phenyl)-thiazol-2-yl]-methyl-amino}-imidazo[1,2-a]pyridin-6-yl)-piperazine-1-carbonyl]-pyrrolidin-1-yl}-ethanone]
5 | > 1000 | 500 to 1000 | 0.01 to 100 | CCc1nc2ccc(N3CCN(S(=O)(=O)CCCN(C)C)CC3)cn2c1N(C)c1nc(-c2ccc(F)cc2)cs1 [Compound 56, N-(6-(4-(3-(dimethylamino)propyl-sulfonyl)piperazin-1-yl)-2-ethylimidazo[1,2-a]pyridin-3-yl)-4-(4-fluorophenyl)-N-methylthiazol-2-amine]
6 | 100 to 500 | 100 to 500 | 0.01 to 100 | CCc1nc2ccc(C3CCN(S(=O)(=O)CCCN4CCOCC4)CC3)cn2c1N(C)c1nc(-c2ccc(F)cc2)cs1 [Compound 88, N-(2-ethyl-6-(1-(3-morpholinopropyl-sulfonyl)piperidin-4-yl)imidazo[1,2-a]pyridin-3-yl)-4-(4-fluorophenyl)-N-methylthiazol-2-amine]
7 | 100 to 500 | 100 to 500 | 0.01 to 100 | CCc1nc2ccc(N3CCN(CC(=O)N4CC(O)C4)CC3)cn2c1N(C)c1nc(-c2ccc(F)cc2C#N)c(C)s1 [Compound 162, 2-(2-((2-ethyl-6-(4-(2-(3-hydroxyazetidin-1-yl)-2-oxoethyl)piperazin-1-yl)imidazo[1,2-a]pyridin-3-yl)(methyl)amino)-5-methylthiazol-4-yl)-5-fluorobenzonitrile]
8 | 500 to 1000 |  |  | CCc1nc2c(F)cc(N3CCN(CC(=O)N4CC[C@@H](O)C4)CC3)cn2c1N(C)c1nc(-c2ccc(F)cc2)cs1 [Compound 16, (R)-2-(4-(2-ethyl-8-fluoro-3-((4-(4-fluorophenyl)thiazol-2-yl)(methyl)amino)imidazo[1,2-a]pyridin-6-yl)piperazin-1-yl)-1-(3-hydroxypyrrolidin-1-yl)ethanone]
9 | 0.01 to 100 | 0.01 to 100 |  | CCc1nc2ccc(C3CCN(CC(=O)N4CC[C@@H](O)C4)CC3)cn2c1N(C)c1nc(-c2ccc(F)cc2)c(C#N)s1 [Compound 142, (R)-2-((2-ethyl-6-(1-(2-(3-hydroxypyrrolidin-1-yl)-2-oxoethyl)piperidin-4-yl)imidazo[1,2-a]pyridin-3-yl)(methyl)amino)-4-(4-fluorophenyl)thiazole-5-carbonitrile]
10 | > 1000 | 100 to 500 |  | CCc1nc2ccc(C3=CCN(S(C)(=O)=O)CC3)cn2c1N(C)c1nc(-c2ccc(OC(F)(F)F)cc2)cs1 [Compound 72, N-(2-ethyl-6-(1-(methylsulfonyl)-1,2,3,6-tetrahydropyridin-4-yl)imidazo[1,2-a]pyridin-3-yl)-N-methyl-4-(4-(trifluoromethoxy)phenyl)thiazol-2-amine]
11 | 0.01 to 100 | 0.01 to 100 |  | CCc1nc2ccc(N3CCN(CC(=O)N(C)C)CC3)cn2c1N(C)c1nc(-c2ccc(F)cc2)c(C#N)s1 [Compound 140, 2-(4-(3-((5-cyano-4-(4-fluorophenyl)thiazol-2-yl)(methyl)amino)-2-ethylimidazo[1,2-a]pyridin-6-yl)piperazin-1-yl)-N,N-dimethylacetamide]
12 | 100 to 500 |  |  | CCc1nc2c(C)cc(N3CCN(CC(=O)N4CC(C)(O)C4)CC3)cn2c1N(C)c1nc(-c2ccc(F)cc2)c(C#N)s1 [Compound 3, 2-((2-ethyl-6-(4-(2-(3-hydroxy-3-methylazetidin-1-yl)-2-oxoethyl)piperazin-1-yl)-8-methylimidazo[1,2-a]pyridin-3-yl)(methyl)amino)-4-(4-fluorophenyl)thiazole-5-carbonitrile]
13 | 500 to 1000 |  |  | CCc1nc2c(F)cc(N3CCN(CC(=O)N4CC[C@H](O)C4)CC3)cn2c1N(C)c1nc(-c2ccc(F)cc2)cs1 [Compound 15, (S)-2-(4-(2-ethyl-8-fluoro-3-((4-(4-fluorophenyl)thiazol-2-yl)(methyl)amino)imidazo[1,2-a]pyridin-6-yl)piperazin-1-yl)-1-(3-hydroxypyrrolidin-1-yl)ethanone]
14 | 500 to 1000 | 100 to 500 |  | CCC(=O)N1CCC(c2ccc3nc(CC)c(N(C)c4nc(-c5ccc(F)cc5)c(CO)s4)n3c2)CC1 [Compound 154, 1-(4-(2-ethyl-3-((4-(4-fluorophenyl)-5-(hydroxymethyl)thiazol-2-yl)(methyl)amino)imidazo[1,2-a]pyridin-6-yl)piperidin-1-yl)propan-1-one]
15 | 0.01 to 100 |  |  | CCc1nc2cc(F)c(N3CCN(CC(=O)N4CC(O)C4)CC3)cn2c1N(C)c1nc(-c2ccc(F)cc2)c(C#N)s1 [Compound 18, 2-[(2-Ethyl-7-fluoro-6-{4-[2-(3-hydroxy-azetidin-1-yl)-2-oxo-ethyl]-piperazin-1-yl}-imidazo[1,2-a]pyridin-3-yl)-methyl-amino]-4-(4-fluoro-phenyl)-thiazole-5-carbonitrile]
16 | 100 to 500 |  |  | CCc1nc2c(C)cc(N3CCN(CC(=O)N4CC(O)C4)C(C)(C)C3)cn2c1N(C)c1nc(-c2ccc(F)cc2)c(C#N)s1 [Compound 6, 2-((2-ethyl-6-(4-(2-(3-hydroxyazetidin-1-yl)-2-oxoethyl)-3,3-dimethylpiperazin-1-yl)-8-methylimidazo[1,2-a]pyridin-3-yl)(methyl)amino)-4-(4-fluorophenyl)thiazole-5-carbonitrile]
17 | > 1000 |  |  | CCc1nc2cc(F)c(N3CCN(CC(=O)N4CC(O)C4)CC3)cn2c1N(C)c1nc(-c2ccc(F)cc2)cs1 [Compound 19, 2-[4-(2-Ethyl-7-fluoro-3-{[4-(4-fluoro-phenyl)-thiazol-2-yl]-methyl-amino}-imidazo[1,2-a]pyridin-6-yl)-piperazin-1-yl]-1-(3-hydroxy-azetidin-1-yl)-ethanone]
18 | 0.01 to 100 |  |  | CCc1nc2c(F)cc(N3CCN(CC(=O)N4CC(O)C4)CC3)cn2c1N(C)c1nc(-c2ccc(F)cc2)cs1 [Compound 14, 2-(4-(2-ethyl-8-fluoro-3-((4-(4-fluorophenyl)thiazol-2-yl)(methyl)amino)imidazo[1,2-a]pyridin-6-yl)piperazin-1-yl)-1-(3-hydroxyazetidin-1-yl)ethanone]
19 | 100 to 500 | 500 to 1000 |  | CN(c1nc(-c2ccc(F)cc2)c(CO)s1)c1c(CCC#N)nc2ccc(C3CCN(S(C)(=O)=O)CC3)cn12 [Compound 175, 3-(3-((4-(4-fluorophenyl)-5-(hydroxymethyl)thiazol-2-yl)(methyl)amino)-6-(1-(methylsulfonyl)piperidin-4-yl)imidazo[1,2-a]pyridin-2-yl)propanenitrile]

Row | SMILES | IC50 [1] [nM] | IC50 [2] [nM] | IC50 [3] [nM]
20 | CCc1nc2ccc(C3CCN(S(=O)(=O)CCCN(C)C)CC3)cn2c1N(C)c1nc(-c2ccc(F)cc2)cs1 [Compound 87, N-(6-(1-(3-(dimethylamino)propyl-sulfonyl)piperidin-4-yl)-2-ethylimidazo[1,2-a]pyridin-3-yl)-4-(4-fluorophenyl)-N-methylthiazol-2-amine] | 100 to 500 | 100 to 500 | 0.01 to 100
21 | CCc1nc2ccc(C3CCN(S(=O)(=O)CCCN(C)C)CC3)cn2c1N(C)c1nc(-c2ccc(F)cc2)c(CO)s1 [Compound 149, (2-((6-(1-(3-(dimethylamino)propyl-sulfonyl)piperidin-4-yl)-2-ethylimidazo[1,2-a]pyridin-3-yl)(methyl)amino)-4-(4-fluorophenyl)thiazol-5-yl)] | > 1000 | 100 to 500 | 

— patent US9670204B2, “Compounds and pharmaceutical compositions thereof for the treatment of inflammatory disorders” (Galapagos NV, priority 2013, dated 2017)
